Assay results published in patent US10273248B2, “Glucose uptake inhibitors” (Kadmon Corporation LLC, priority 2015, dated 2019).
Where a name gives a salt, the structure may show the parent alone.

Test system: glycolysis in HT1080 cells
Assay: Glycolysis assay: oligomycin plus compound, cellular ATP by Cell Titer Glo
Assay type: cell-based
Conditions: Homo sapiens, HT-1080, 1 h, 10 μM oligomycin, one hour, class symbols
From the text: Therefore, an assay was developed that utilizes the combination of the glucose uptake inhibitors disclosed herein with oligomycin, a well-characterized inhibitor of ATP synthase. Because oligomycin inhibits ATP derived from oxidative phosphorylation, any remaining ATP production is derived from glycolysis. By reading out cellular ATP levels using the Promega Cell Titer Glo kit, the extent of glycolysis inhibition by the glucose uptake inhibitors disclosed herein can be assessed. […] Utilizing this experimental set-up, the IC50 of glycolysis inhibition for each compound can be determined.
Determination of Glucose Uptake/GLUT Activity (Glycolysis Assay):
HT1080 cells (as well as other cell types) were plated to confluency in 96-well plates. Cells were exposed to the combination of 10 μM Oligomycin (to block mitochondrial-derived ATP) and the glucose uptake inhibitors disclosed herein for one-hour, after which glycolytically-derived ATP was measured with the Cell Titer-Glo assay kit (Promega). Dose-response curves of the glucose uptake inhibitors disclosed herein were used to determine the IC50 for GLUT activity.

Row | IC50 | Compound
1 | 10 to 100 nM | O=C(Nc1cccc(-c2nc3c(c(Nc4ccc(-c5cn[nH]c5)cc4)n2)COC3)c1)c1cccnc1 [Example 47, N-(3-(4-((4-(1H-pyrazol-4-yl)phenyl)amino)-5,7-dihydrofuro[3,4-d]pyrimidin-2-yl)phenyl)nicotinamide]
2 | > 1000 nM | CC(C)NC(=O)COc1cccc(-c2nc(Nc3ccc(-c4cn[nH]c4)cc3)c3ncccc3n2)c1 [Example 48, 2-(3-(4-((4-(1H-pyrazol-4-yl)phenyl)amino)pyrido[3,2-d]pyrimidin-2-yl)phenoxy)-N-isopropylacetamide]
3 | 101 to 250 nM | O=C(COc1cccc(-c2nc(Nc3ccc(-c4cn[nH]c4)cc3)c3ncccc3n2)c1)NC1CCC1 [Example 49, 2-(3-(4-((4-(1H-pyrazol-4-yl)phenyl)amino)pyrido[3,2-d]pyrimidin-2-yl)phenoxy)-N-cyclobutylacetamide]
4 | 501 to 1000 nM | CC(C(=O)Nc1cccc(-c2nc(Nc3ccc(-c4cn[nH]c4)cc3)c3ncccc3n2)c1)N1CCOCC1 (stereo not shown) [Example 50, N-(3-(4-((4-(1H-pyrazol-4-yl)phenyl)amino)pyrido[3,2-d]pyrimidin-2-yl)phenyl)-2-morpholinopropanamide]
5 | 10 to 100 nM | O=C(COc1cccc(-c2nc(Nc3ccc(-c4cn[nH]c4)cc3)c3ncccc3n2)c1)NC1CCCC1 [Example 51, 2-(3-(4-((4-(1H-pyrazol-4-yl)phenyl)amino)pyrido[3,2-d]pyrimidin-2-yl)phenoxy)-N-cyclopentylacetamide]
6 | 501 to 1000 nM | CC(C)NC(=O)COc1cccc(-c2nc(Nc3ccc(-c4cn[nH]c4)cc3)c3cccnc3n2)c1 [Example 52, 2-(3-(4-((4-(1H-pyrazol-4-yl)phenyl)amino)pyrido[2,3-d]pyrimidin-2-yl)phenoxy)-N-isopropylacetamide]
7 | 101 to 250 nM | CC(C)CNC(=O)COc1cccc(-c2nc(Nc3ccc(-c4cn[nH]c4)cc3)c3ncccc3n2)c1 [Example 53, 2-(3-(4-((4-(1H-pyrazol-4-yl)phenyl)amino)pyrido[3,2-d]pyrimidin-2-yl)phenoxy)-N-isobutylacetamide]
8 | 251 to 500 nM | Cn1ncc2c(Nc3ccc(-c4cn[nH]c4)cc3)nc(-c3cccc(OCC(=O)NC4CCC4)c3)nc21 [Example 54, 2-(3-(4-((4-(1H-pyrazol-4-yl)phenyl)amino)-1-methyl-1H-pyrazolo[3,4-d]pyrimidin-6-yl)phenoxy)-N-cyclobutylacetamide]
9 | 251 to 500 nM | CC(C)NC(=O)COc1cccc(-c2nc(Nc3ccc(-c4cn[nH]c4)cc3)c3cnn(C)c3n2)c1 [Example 55, 2-(3-(4-((4-(1H-pyrazol-4-yl)phenyl)amino)-1-methyl-1H-pyrazolo[3,4-d]pyrimidin-6-yl)phenoxy)-N-isopropylacetamide]
10 | 101 to 250 nM | Cn1ncc2c(Nc3ccc(-c4cn[nH]c4)cc3)nc(-c3cccc(OCC(=O)NC4CCCC4)c3)nc21 [Example 56, 2-(3-(4-((4-(1H-pyrazol-4-yl)phenyl)amino)-1-methyl-1H-pyrazolo[3,4-d]pyrimidin-6-yl)phenoxy)-N-cyclopentylacetamide]
11 | 101 to 250 nM | CC(C)CNC(=O)COc1cccc(-c2nc(Nc3ccc(-c4cn[nH]c4)cc3)c3cnn(C)c3n2)c1 [Example 57, 2-(3-(4-((4-(1H-pyrazol-4-yl)phenyl)amino)-1-methyl-1H-pyrazolo[3,4-d]pyrimidin-6-yl)phenoxy)-N-isobutylacetamide]
12 | > 1000 nM | CC(C)NC(=O)COc1cccc(-c2nc(Nc3ccc(-c4cn[nH]c4)cc3)c3c(cnn3C)n2)c1 [Example 58, 2-(3-(7-((4-(1H-pyrazol-4-yl)phenyl)amino)-1-methyl-1H-pyrazolo[4,3-d]pyrimidin-5-yl)phenoxy)-N-isopropylacetamide]
13 | > 1000 nM | Cn1ncc2nc(-c3cccc(OCC(=O)NC4CCC4)c3)nc(Nc3ccc(-c4cn[nH]c4)cc3)c21 [Example 59, 2-(3-(7-((4-(1H-pyrazol-4-yl)phenyl)amino)-1-methyl-1H-pyrazolo[4,3-d]pyrimidin-5-yl)phenoxy)-N-cyclobutylacetamide]
14 | 501 to 1000 nM | Cn1ncc2nc(-c3cccc(OCC(=O)NC4CCCC4)c3)nc(Nc3ccc(-c4cn[nH]c4)cc3)c21 [Example 60, 2-(3-(7-((4-(1H-pyrazol-4-yl)phenyl)amino)-1-methyl-1H-pyrazolo[4,3-d]pyrimidin-5-yl)phenoxy)-N-cyclopentylacetamide]
15 | > 1000 nM | CC(C)CNC(=O)COc1cccc(-c2nc(Nc3ccc(-c4cn[nH]c4)cc3)c3c(cnn3C)n2)c1 [Example 61, 2-(3-(7-((4-(1H-pyrazol-4-yl)phenyl)amino)-1-methyl-1H-pyrazolo[4,3-d]pyrimidin-5-yl)phenoxy)-N-isobutylacetamide]
16 | 10 to 100 nM | CC(C)NC(=O)COc1cccc(-c2nc(Nc3ccc(-c4cn[nH]c4)cc3)c3ccncc3n2)c1 [Example 62, 2-(3-(4-((4-(1H-pyrazol-4-yl)phenyl)amino)pyrido[3,4-d]pyrimidin-2-yl)phenoxy)-N-isopropylacetamide]

Row | IC50 | Compound
17 | 10 to 100 nM | O=C(COc1cccc(-c2nc(Nc3ccc(-c4cn[nH]c4)cc3)c3ccncc3n2)c1)NC1CCC1 [Example 63, 2-(3-(4-((4-(1H-pyrazol-4-yl)phenyl)amino)pyrido[3,4-d]pyrimidin-2-yl)phenoxy)-N-cyclobutylacetamide]
18 | 10 to 100 nM | O=C(COc1cccc(-c2nc(Nc3ccc(-c4cn[nH]c4)cc3)c3ccncc3n2)c1)NC1CCCC1 [Example 64, 2-(3-(4-((4-(1H-pyrazol-4-yl)phenyl)amino)pyrido[3,4-d]pyrimidin-2-yl)phenoxy)-N-cyclopentylacetamide]
19 | 251 to 500 nM | CC(C)NC(=O)COc1cccc(-c2nc(Nc3ccc(-c4cn[nH]c4)cc3)c3ncsc3n2)c1 [Example 65, 2-(3-(7-((4-(1H-pyrazol-4-yl)phenyl)amino)thiazolo[5,4-d]pyrimidin-5-yl)phenoxy)-N-isopropylacetamide]
20 | 251 to 500 nM | O=C(COc1cccc(-c2nc(Nc3ccc(-c4cn[nH]c4)cc3)c3ncsc3n2)c1)NC1CCC1 [Example 66, 2-(3-(7-((4-(1H-pyrazol-4-yl)phenyl)amino)thiazolo[5,4-d]pyrimidin-5-yl)phenoxy)-N-cyclobutylacetamide]
21 | 101 to 250 nM | O=C(COc1cccc(-c2nc(Nc3ccc(-c4cn[nH]c4)cc3)c3ncsc3n2)c1)NC1CCCC1 [Example 67, 2-(3-(7-((4-(1H-pyrazol-4-yl)phenyl)amino)thiazolo[5,4-d]pyrimidin-5-yl)phenoxy)-N-cyclopentylacetamide]
22 | 251 to 500 nM | CC(C)CNC(=O)COc1cccc(-c2nc(Nc3ccc(-c4cn[nH]c4)cc3)c3ncsc3n2)c1 [Example 68, 2-(3-(7-((4-(1H-pyrazol-4-yl)phenyl)amino)thiazolo[5,4-d]pyrimidin-5-yl)phenoxy)-N-isobutylacetamide]
23 | 10 to 100 nM | O=C(Nc1cccc(-c2nc3c(c(Nc4ccc(-c5cn[nH]c5)cc4)n2)COC3)c1)c1cncc(Cl)c1 [Example 69, N-(3-(4-((4-(1H-pyrazol-4-yl)phenyl)amino)-5,7-dihydrofuro[3,4-d]pyrimidin-2-yl)phenyl)-5-chloronicotinamide]
24 | 10 to 100 nM | CC(C)(C)NC(=O)COc1cccc(-c2nc3c(c(Nc4ccc(-c5cn[nH]c5)cc4)n2)COC3)c1 [Example 70, 2-(3-(4-((4-(1H-pyrazol-4-yl)phenyl)amino)-5,7-dihydrofuro[3,4-d]pyrimidin-2-yl)phenoxy)-N-(tert-butyl)acetamide dihydrochloride]
25 | 10 to 100 nM | Cc1ccc(C(=O)Nc2cccc(-c3nc4c(c(Nc5ccc(-c6cn[nH]c6)cc5)n3)COC4)c2)cn1 [Example 72, N-(3-(4-((4-(1H-pyrazol-4-yl)phenyl)amino)-5,7-dihydrofuro[3,4-d]pyrimidin-2-yl)phenyl)-6-methylnicotinamide]
26 | 10 to 100 nM | Cc1cncc(C(=O)Nc2cccc(-c3nc4c(c(Nc5ccc(-c6cn[nH]c6)cc5)n3)COC4)c2)c1 [Example 73, N-(3-(4-((4-(1H-pyrazol-4-yl)phenyl)amino)-5,7-dihydrofuro[3,4-d]pyrimidin-2-yl)phenyl)-5-methylnicotinamide]
27 | 101 to 250 nM | Cc1ccncc1C(=O)Nc1cccc(-c2nc3c(c(Nc4ccc(-c5cn[nH]c5)cc4)n2)COC3)c1 [Example 74, N-(3-(4-((4-(1H-pyrazol-4-yl)phenyl)amino)-5,7-dihydrofuro[3,4-d]pyrimidin-2-yl)phenyl)-4-methylnicotinamide]
28 | 10 to 100 nM | O=C(Nc1cccc(-c2nc3c(c(Nc4ccc(-c5cn[nH]c5)cc4)n2)COC3)c1)c1cncc(F)c1 [Example 75, N-(3-(4-((4-(1H-pyrazol-4-yl)phenyl)amino)-5,7-dihydrofuro[3,4-d]pyrimidin-2-yl)phenyl)-5-fluoronicotinamide]
29 | 10 to 100 nM | CCC(CC)NC(=O)COc1cccc(-c2nc3c(c(Nc4ccc(-c5cn[nH]c5)cc4)n2)COC3)c1 [Example 76, 2-(3-(4-((4-(1H-pyrazol-4-yl)phenyl)amino)-5,7-dihydrofuro[3,4-d]pyrimidin-2-yl)phenoxy)-N-(pentan-3-yl)acetamide dihydrochloride]
30 | 10 to 100 nM | CCC(C)NC(=O)COc1cccc(-c2nc3c(c(Nc4ccc(-c5cn[nH]c5)cc4)n2)COC3)c1 (stereo not shown) [Example 77, 2-(3-(4-((4-(1H-pyrazol-4-yl)phenyl)amino)-5,7-dihydrofuro[3,4-d]pyrimidin-2-yl)phenoxy)-N-(sec-butyl)acetamide]
31 | 10 to 100 nM | CC(C)CNC(=O)COc1cccc(-c2nc3c(c(Nc4ccc(-c5cn[nH]c5)cc4)n2)COC3)c1 [Example 78, 2-(3-(4-((4-(1H-pyrazol-4-yl)phenyl)amino)-5,7-dihydrofuro[3,4-d]pyrimidin-2-yl)phenoxy)-N-isobutylacetamide]
